One compound from patent US10751293B2, “Polymer fiber scaffolds and uses thereof” (CASE WESTERN RESERVE UNIVERSITY, priority 2015, dated 2020) can be followed below.

The data set is described as follows: thermogravimetric analysis (TGA), thermal stability.

In the case of `Clc1ccccc1C(c1ccccc1)(c1ccccc1)n1ccnc1` [Clotrimazole], the “stability at the processing temperature” value (180° C.) was “stable”. Besides, the “temperature above which decomposition begins” value (non-isothermal mode) is “above 190 °C”.
